According to patent publication US20090011951A1, “Method of Gene Screening With Yeast Having Ergosterol Synthase Undergoing Inducible Expression” (priority 2004, published 2009):

What was measured:
yeast = settings: known action; cited from earlier work
[1] = tested on: yeast (Saccharomyces cerevisiae) that inducibly expresses ERG6; test: Cycloheximide sensitivity of the strain that inducibly expresses ERG6; assay type: cell-based; settings: 30° C., 2 days, various concentrations
Method: The following experiments were performed to confirm a difference in drug resistance of yeast that inducibly expresses ergosterol depending on presence or absence of induction.
It was confirmed that the drug sensitivity was increased by turning off the expression of ergosterol.

| SMILES | growth inhibitory action against yeast (yeast) | cycloheximide sensitivity ([1]; galactose medium (ERG6 induced)) | cycloheximide sensitivity ([1]; glucose medium (ERG6 repressed)) |
| --- | --- | --- | --- |
| CN(Cc1cnc2nc(N)nc(N)c2n1)c1ccc(C(=O)N[C@@H](CCC(=O)O)C(=O)O)cc1 [Methotrexate] | has a growth inhibitory action against yeast | – | – |
| C[C@@H]1C[C@@H]([C@H](O)CC2CC(=O)NC(=O)C2)C(=O)[C@@H](C)C1 [cycloheximide] | – | equal to that of a pdr1 pdr3-disrupted stain (ERG6 strain) | equal to that of a pdr1 pdr3 erg6-disrupted strain |
